Results taken from patent publication US20260053767A1, “Hepatoprotective Compositions And Methods” (Jemyll, Ltd., priority 2022, published 2026).
Entries after “also recorded” stand apart in the source; their conditions may differ.

Legend:
[1] = test system: PGC-1α; test: PGC-1α protein levels in liver cells (marker for mitochondrial biogenesis); format: cell-based; settings: AML-12 liver cells
Description: (§1) To that end, the inventors used endothelial cells (EOMA cells) and liver cells (AML-12 cells) in vitro and quantified various markers in response to exposure of the cells to environmental challenge in the presence and absence of DDA at low concentrations. Unless indicated otherwise, the DDA concentration in the in vitro experiments was 5 mcg per microliter. More specifically, the inventors measured p-H2AX protein levels as a marker for DNA damage, PGC-1α protein levels as a marker for mitochondrial biogenesis, NAMPT enzyme levels as a marker for potential for NAD+ production, and total antioxidant capacity as a marker of cellular health. In addition, the inventors also measured global SIRT activity as a gauge of activity for all SIRT enzymes, and in particular SIRT1 enzyme levels as markers for autophagy and various beneficial processes associated with a caloric restricted diet, and SIRT3 levels as markers for mitochondrial function and longevity.
The inventors also evaluated activity of DDA on energy metabolism, and particularly on mitochondrial health and/or mitochondrial biogenesis. The protein followed was PGC-1α, a known marker for mitochondrial biogenesis, and exemplary results are depicted in FIG. 7. […] Such finding is not entirely unexpected as PGC-1α is a transcriptional co-activator and as such tightly regulated.

[2] = test system: SIRT3; test: SIRT3 protein levels in liver cells; format: cell-based; settings: AML-12 liver cells, 24 hours; p=0.028
Description: as §1
In still further experiments, the inventors also investigated whether or not DDDA could have stimulatory effects on selected SIRT proteins. More specifically, the inventors tested the effects of DDDA on SIRT3 and SIRT1, and exemplary results are shown in FIG. 9 and FIG. 10, respectively. […] N=5-6 plates per treatment. […] Beyond this trend, however, no other observations were evident. N=5-6 plates per treatment.

[3] = test system: Wistar rats; test: Study 1 (prevention): oral glucose tolerance test and HOMA-IR; format: in vivo; settings: Study 1: 1% (w/vol) in drinking water with high fat-high cholesterol diet for 4 weeks
Protocol: Study design: All animal procedures were approved by the Catholic University of Rome Institutional Animal Care Committee. The design of the studies is summarized in FIG. 18, Panels A and B. • Study 1: Twenty adult Wistar rats, aged 8-10 weeks, were included in the study. The rats were housed in individual cages at 22° C. with 12-h light cycles and had ad libitum access to food and water. Rats were fed a high-fat high-cholesterol diet (44% Carbohydrate, 14% Protein, 42% fat+0.2% Cholesterol) (Mucedola, Milan, IT) for four weeks in the presence or absence of 1% Dodecanedioic acid, sodium salt (w/vol) dissolved in the water (FIG. 18, Panel A). Body weight and food/water intake were monitored weekly. • Study 2: Twenty adult Wistar rats, aged 8-10 weeks, were included in the study. The rats were housed in individual cages at 22° C. with 12-h light cycles and had ad libitum access to food and water. Rats were fed a high-fat high-cholesterol diet (44% Carbohydrate, 14% Protein, 42% fat+0.2% Cholesterol) (Mucedola, Milan, IT). After nine weeks of diet, rats were randomly assigned to one of the following groups: Four weeks of high-fat high-cholesterol diet or four weeks of high-fat high-cholesterol diet and 1% Dodecanedioic acid, sodium salt (w/v) dissolved in the water FIG. 18, Panel B). Body weight and food/water intake were monitored weekly.
Oral Glucose Test Tolerance (OGTT): All animals underwent an OGTT at the end of the study. After an overnight fasting, the rats received a 50% D-glucose solution (1 g/kg body weight) by oral gavage. Blood samples were taken by tail bleeding and collected in EDTA tubes. All blood samples were immediately centrifuged, and plasma divided into appropriate subsamples and stored at −20° C. for further analysis. Blood glucose and was measured at 0, 20, 40, 60, 80, 100 and 120 minutes, while plasma insulin at 0, 60 and 120 minutes. Blood glucose levels were measured by glucometer (Accu-Chek, Roche Diagnostics Division, Grenzacherstrasse, CH). Plasma insulin was measured by ELISA (EMD Millipore Corporation, Billerica, MA), with a sensitivity of 0.1 ng/ml and an intra-and inter-assay precision of 1.9% and 7.6%, respectively.
DODA administration prevents the onset of insulin resistance and NASH: To test the hypothesis that DODA could prevent the development of diet-induced insulin resistance and NASH, the inventors administered 1% (w/vol) of DODA in the drinking water together with a high fat-high cholesterol diet for 4 weeks. Rats fed high fat-high cholesterol diet without the administration of DODA were included as controls.
Panels A and B. • Study 1: Twenty adult Wistar rats, aged 8-10 weeks, were included in the study. The rats were housed in individual cages at 22° C. with 12-h light cycles and had ad libitum access to food and water. Rats were fed a high fat high cholesterol diet (44% Carbohydrate, 14% Protein, 42% fat+0.2% Cholesterol) for 4 weeks in the presence or absence of 1% Dodecanedioic acid, sodium salt dissolved in the water (FIG. 25, Panel A). Body weight and food/water intake were monitored weekly. • Study 2: Twenty adult Wistar rats, aged 8-10 weeks, were included in the study. The rats were housed in individual cages at 22° C. with 12-h light cycles and had ad libitum access to food and water. Rats were fed a high fat-high cholesterol diet (44% Carbohydrate, 14% Protein, 42% fat+0.2% Cholesterol). […] Body weight and food/water intake were monitored weekly. […]

Structure (SMILES): O=C(O)CCCCCCCCCCC(=O)O [DDDA, dodecanedioic acid]
- PGC-1α levels ([1]; 6 hours, p=0.001): increased PGC1α levels
- PGC-1α levels ([1]; 24 hours, pattern relative to 6 hours): paradoxically reversed
- SIRT3 protein levels [2]: significantly increased
- blood glucose concentrations during an oral glucose tolerance test ([3]; vs controls): decrease
- hepatic insulin resistance assessed by HOMA-IR ([3]; vs controls): decreased
- plasma insulin concentrations during an oral glucose tolerance test ([3]; vs controls): decrease
- diet-induced insulin resistance and NASH (overall, prevention) ([3]; listed as C12): able to prevent diet-induced insulin resistance and NASH; also recorded: prevents diet-induced insulin resistance and NASH
- diet-induced insulin resistance and NASH (overall, prevention) ([3]; listed as DODA): able to prevent diet-induced insulin resistance and NASH; also recorded: prevents diet-induced insulin resistance and NASH
